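Exposure lasted 48 hours, with cells grown in 96-well plates and compounds tested at five concentrations. GI50 = concentration required for 50% inhibition of growth. TGI denotes the concentration required for complete inhibition of growth.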
Columns and labels:
Experiment in all cases: inhibition of tumour cell growth, NCI panel, 48 h
HOP-92 NSCLC = test system: HOP-92 NSCLC
SR leukemia = test system: SR leukemia
RPMI-8226 leukemia = test system: RPMI-8226 leukemia
EKVX NSCLC = test system: EKVX NSCLC
ACHN renal = test system: ACHN renal
LOX IMVI melanoma = test system: LOX IMVI melanoma
SK-MEL-5 melanoma = test system: SK-MEL-5 melanoma
SNB-19 CNS = test system: SNB-19 CNS
TK-10 renal = test system: TK-10 renal
SK-OV-3 ovarian = test system: SK-OV-3 ovarian
MDA-MB-231 breast = test system: MDA-MB-231 breast
HCT-116 colon = test system: HCT-116 colon
COLO 205 colon = test system: COLO 205 colon
MDA-MB-435 = test system: MDA-MB-435
IGROV1 ovarian = test system: IGROV1 ovarian
SF-295 CNS = test system: SF-295 CNS
A498 renal = test system: A498 renal
K-562 leukemia = test system: K-562 leukemia
NCI-H226 lung = test system: NCI-H226 lung
M14 melanoma = test system: M14 melanoma
SF-268 CNS = test system: SF-268 CNS
MCF7 breast = test system: MCF7 breast
786-0 renal = test system: 786-0 renal
SNB-75 CNS = test system: SNB-75 CNS
MOLT-4 leukemia = test system: MOLT-4 leukemia
BT-549 breast = test system: BT-549 breast
U251 CNS = test system: U251 CNS
NCI/ADR-RES ovarian = test system: NCI/ADR-RES ovarian
T-47D breast = test system: T-47D breast
HCC-2998 colon = test system: HCC-2998 colon
OVCAR-8 ovarian = test system: OVCAR-8 ovarian
OVCAR-4 ovarian = test system: OVCAR-4 ovarian
SW-620 colon = test system: SW-620 colon
SK-MEL-2 melanoma = test system: SK-MEL-2 melanoma
KM12 colon = test system: KM12 colon
NCI-H522 lung = test system: NCI-H522 lung
HT29 colon = test system: HT29 colon
DU-145 prostate = test system: DU-145 prostate
SK-MEL-28 melanoma = test system: SK-MEL-28 melanoma
CCRF-CEM leukemia = test system: CCRF-CEM leukemia
UACC-257 melanoma = test system: UACC-257 melanoma
HOP-62 NSCLC = test system: HOP-62 NSCLC
PC-3 prostate = test system: PC-3 prostate
OVCAR-5 ovarian = test system: OVCAR-5 ovarian
UACC-62 melanoma = test system: UACC-62 melanoma
HCT-15 colon = test system: HCT-15 colon
HL-60(TB) leukemia = test system: HL-60(TB) leukemia
SN12C renal = test system: SN12C renal
HS 578T breast = test system: HS 578T breast
RXF 393 renal = test system: RXF 393 renal
MALME-3M melanoma = test system: MALME-3M melanoma
NCI-H460 lung = test system: NCI-H460 lung
A549 NSCLC = test system: A549 NSCLC
SF-539 CNS = test system: SF-539 CNS
UO-31 renal = test system: UO-31 renal
CAKI-1 renal = test system: CAKI-1 renal
NCI-H23 lung = test system: NCI-H23 lung

Question: Which results are given for `CNC(=O)c1cc(N2CCc3cc(NC(=O)Nc4ccc(N5CCN(C)CC5)c(C(F)(F)F)c4)ccc32)ccn1`?
Answer: GI50 (HOP-92 NSCLC): 21.4 µM; TGI (HOP-92 NSCLC): > 25 µM; GI50 (SR leukemia): 0.79 µM; TGI (SR leukemia): 4.43 µM; GI50 (RPMI-8226 leukemia): 0.742 µM; TGI (RPMI-8226 leukemia): 2.69 µM; GI50 (EKVX NSCLC): 3.95 µM; TGI (EKVX NSCLC): 7.73 µM; GI50 (ACHN renal): 3.92 µM; TGI (ACHN renal): 7.31 µM; GI50 (LOX IMVI melanoma): 3.44 µM; TGI (LOX IMVI melanoma): 7.14 µM; GI50 (SK-MEL-5 melanoma): 4.32 µM; TGI (SK-MEL-5 melanoma): 7.89 µM; GI50 (SNB-19 CNS): 3.6 µM; TGI (SNB-19 CNS): 8.12 µM; GI50 (TK-10 renal): 5.42 µM; TGI (TK-10 renal): 11.1 µM; GI50 (SK-OV-3 ovarian): > 25 µM; TGI (SK-OV-3 ovarian): > 25 µM; GI50 (MDA-MB-231 breast): 3.48 µM; TGI (MDA-MB-231 breast): 7.83 µM; GI50 (HCT-116 colon): 2.22 µM; TGI (HCT-116 colon): 5.35 µM; GI50 (COLO 205 colon): 4.54 µM; TGI (COLO 205 colon): 8.71 µM; GI50 (MDA-MB-435): 3.99 µM; TGI (MDA-MB-435): 7.6 µM; GI50 (IGROV1 ovarian): 4.6 µM; TGI (IGROV1 ovarian): 9.53 µM; GI50 (SF-295 CNS): 0.541 µM; TGI (SF-295 CNS): 1.33 µM; GI50 (A498 renal): 7.9 µM; TGI (A498 renal): > 25 µM; GI50 (K-562 leukemia): 0.69 µM; TGI (K-562 leukemia): 2.19 µM; GI50 (NCI-H226 lung): > 25 µM; TGI (NCI-H226 lung): > 25 µM; GI50 (M14 melanoma): 3.34 µM; TGI (M14 melanoma): 6.67 µM; GI50 (SF-268 CNS): 4.08 µM; TGI (SF-268 CNS): 9.86 µM; GI50 (MCF7 breast): 2.96 µM; TGI (MCF7 breast): 7.39 µM; GI50 (786-0 renal): 2.86 µM; TGI (786-0 renal): 6.15 µM; GI50 (SNB-75 CNS): 2.55 µM; TGI (SNB-75 CNS): 5.75 µM; GI50 (MOLT-4 leukemia): 1.18 µM; TGI (MOLT-4 leukemia): 22 µM; GI50 (BT-549 breast): 4.59 µM; TGI (BT-549 breast): 14.4 µM; GI50 (U251 CNS): 2.45 µM; TGI (U251 CNS): 5.75 µM; GI50 (NCI/ADR-RES ovarian): 5.27 µM; TGI (NCI/ADR-RES ovarian): 12 µM; GI50 (T-47D breast): 4.14 µM; TGI (T-47D breast): 9.32 µM; GI50 (HCC-2998 colon): 4.13 µM; TGI (HCC-2998 colon): 7.83 µM; GI50 (OVCAR-8 ovarian): 4.48 µM; TGI (OVCAR-8 ovarian): 8.67 µM; GI50 (OVCAR-4 ovarian): 3.96 µM; TGI (OVCAR-4 ovarian): 8.69 µM; GI50 (SW-620 colon): 0.881 µM; TGI (SW-620 colon): 2.87 µM; GI50 (SK-MEL-2 melanoma): 4.56 µM; TGI (SK-MEL-2 melanoma): 8.66 µM; GI50 (KM12 colon): 0.862 µM; TGI (KM12 colon): 4.24 µM; GI50 (NCI-H522 lung): 4.87 µM; TGI (NCI-H522 lung): 9.54 µM; GI50 (HT29 colon): 1.31 µM; TGI (HT29 colon): 4.91 µM; GI50 (DU-145 prostate): 4.22 µM; TGI (DU-145 prostate): 8.12 µM; GI50 (SK-MEL-28 melanoma): 3.7 µM; TGI (SK-MEL-28 melanoma): 7.19 µM; GI50 (CCRF-CEM leukemia): 1.17 µM; TGI (CCRF-CEM leukemia): 21.6 µM; GI50 (UACC-257 melanoma): 4.31 µM; TGI (UACC-257 melanoma): 8.05 µM; GI50 (HOP-62 NSCLC): 4.02 µM; TGI (HOP-62 NSCLC): 8.34 µM; GI50 (PC-3 prostate): 4.36 µM; TGI (PC-3 prostate): 15.3 µM; GI50 (OVCAR-5 ovarian): 3.76 µM; TGI (OVCAR-5 ovarian): 8.4 µM; GI50 (UACC-62 melanoma): 4.48 µM; TGI (UACC-62 melanoma): 9.4 µM; GI50 (HCT-15 colon): 0.879 µM; TGI (HCT-15 colon): 3.59 µM; GI50 (HL-60(TB) leukemia): 4.28 µM; TGI (HL-60(TB) leukemia): 11.9 µM; GI50 (SN12C renal): 4.05 µM; TGI (SN12C renal): 8.1 µM; GI50 (HS 578T breast): 3.49 µM; TGI (HS 578T breast): 9.66 µM; GI50 (RXF 393 renal): 0.815 µM; TGI (RXF 393 renal): 3.15 µM; GI50 (MALME-3M melanoma): 3.72 µM; TGI (MALME-3M melanoma): 7.52 µM; GI50 (NCI-H460 lung): 3.78 µM; TGI (NCI-H460 lung): 7.68 µM; GI50 (A549 NSCLC): 3.94 µM; TGI (A549 NSCLC): 7.99 µM; GI50 (SF-539 CNS): 1.03 µM; TGI (SF-539 CNS): 4.15 µM; GI50 (UO-31 renal): 4.22 µM; TGI (UO-31 renal): 9.43 µM; GI50 (CAKI-1 renal): 4.43 µM; TGI (CAKI-1 renal): 9.07 µM; GI50 (NCI-H23 lung): 3.73 µM; TGI (NCI-H23 lung): 8.06 µM

From PubChem BioAssay (NCI)
